Values after ≈ are worked out from the molar mass of the structure shown. Where two headings read alike, the source gives them in different places. Marks after values point to notes of the source that are not given here.
How the values were obtained:
HIV-1(IIIB) = assay: HIV-1(IIIB)-induced cytopathicity in CEM cell cultures; format: cell-based
How it was run: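 Protection against cytopathicity caused by HIV-1 strain IIIB was measured in CEM cell cultures. The IIIB stock came from supernatants of infected MT-4 cell cultures, and virus was added to the cultures at 100 CCID50. At day 4 to 5 post infection, virus-induced giant cell formation was examined microscopically, and the EC50 was derived from this.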

HIV-2(ROD) = assay: HIV-2(ROD)-induced cytopathicity in MT-4 cell cultures; format: cell-based; conditions: Human immunodeficiency virus 2, MT4, read-out: EC50 HIV-2 (ROD) (MT-4)
Excerpt: Viruses. The origins of MSV, HIV type 1 (HIV-1) (strain IIIB and Ba-L), HIV-2 (strain ROD) and FIV (strain Petaluma) have been described previously (Balzarini et al., AIDS 5: 21-28, 1991; De Clercq et al., Proc. Soc. Exp. Biol. Med. 137:590-594, 1971; Egberink et al., Proc. Natl. Acad. Sci. 87:3087-3091, 1990; Hartmann et al., Antiviral Chem. Chemother. 5:13-19, 1994; Popovic et al., Science 224:497-500, 1984). HIV-1(IIIB) and HIV-2(ROD) stocks were obtained from supernatants of virus-infected MT-4 cell cultures. HIV-1BaL was expanded in human primary M/M, whose supernatants were collected, filtered and stored at −80° C. before use. Characteristics of viral stocks used for this study were 2.1×10^8 HIV-RNA genomes/ml (corresponding to 35 ng of p24 antigen) and 5,000 tissue culture infectious doses 50% per ml (TCID50/ml) as assessed by virus titration in other primary M/M cultures. The isolation and characterization of the clinical HIV-1 isolates L1S, L6S and L6S/PMEA has been reported (Thormar et al., Proc. Natl. Acad. Sci. USA 93:3283-3287, 1995; Van Laethem et al., AIDS 15:553-561, 2001). […] HIV-1/L6S/PMEA is the clinical isolate HIV-1/L6S that has been isolated after culturing the virus for 11 passages in the presence of increasing concentrations of PMEA (adefovir).
(§1) In vitro antiviral assays. The activity against HIV-1- and HIV-2-induced cytopathicity was examined in MT-4 cell cultures at day 5 post infection and based on the determination of cell viability by trypan blue dye staining or in CEM cell cultures at day 4 to 5 post infection and based on the microscopical examination of virus-induced giant cell formation. HIV-1 and HIV-2 were added at 100 CCID50 to the cell cultures.

FIV (strain Petaluma) = assay: Anti-FIV assay, p24 antigen in CrFK cells; format: cell-based; conditions: Feline immunodeficiency virus, CRFK; Table 2
Experimental: For the anti-FIV assays, 10^5 CrFK cells were seeded onto 24-well tissue culture plates. Cells were cultured with 2 ml of culture medium/well containing 2.5% of fetal calf serum in the presence of various drug concentrations. The assays were carried out in triplicate. After a 1-hr incubation period at 37° C., cells were infected with FIV. Virus was left in contact with the cultures for 1 day, after which the medium was removed and new medium containing the appropriate drug concentrations was added. After 6 days, the presence of FIV p24 antigen was examined by an antigen capture assay.

MSV [1] = assay: MSV-induced transformation of murine embryo fibroblast C3H/3T3 cell cultures; format: cell-based; conditions: Mus musculus
Experimental: The inhibitory effect of the test compounds on MSV-induced transformation of murine embryo fibroblast C3H/3T3 cell cultures was examined microscopically at day 6 post infection. MSV was added at 75 focus-forming units to the cell cultures. The detailed procedures for the antiretroviral evaluations has been described in detail before (Balzarini et al., AIDS 5:21-28, 1991; Balzarini et al., Antimicrob. Agents Chemother. 37:332-338, 1993; De Clercq et al., Proc. Soc. Exp. Biol. Med. 137:590-594, 1971).

[2] = Inhibition of CEM cell growth (cytostatic activity); format: cell-based; conditions: human, CEM cells
How it was run: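 MT-4 cells (5×10^4/well) exposed to compound dilutions for 5 days at 37 °C; CC50 = concentration cutting living cells by 50%, counted microscopically with trypan blue exclusion. CEM cytostatic CC50 defined likewise, by a previously described method.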

[3] = Alteration of C3H cell morphology (minimal inhibitory concentration); format: cell-based, murine; conditions: mouse, C3H/3T3 embryo fibroblast cells; microscopically visible alteration of cell morphology; > means no visible toxicity at the indicated concentration; read-out: CC50 C3H (minimal inhibitory concentration)
C3H cells = assay: as above; format: cell-based, murine; conditions: Table 2, footnote c
CEM cells = assay: Incorporation of [3H]thymidine, [3H]uridine and [3H]leucine into CEM cell material; format: cell-based; conditions: 200 μg/mL; 12 hour incubation period
Experimental: The incorporation of [methyl-^3H]thymidine, [^3H]uridine and [^3H]leucine into the methanol-insoluble CEM cell fraction was also measured in microplates. To each well were added 10^5 CEM cells, 5.9 pmol (0.25 μCi) of [methyl-^3H]thymidine, 38 pmol (1.0 μCi) of [^3H]uridine and 19 pmol (1.0 μCi) [4,5-^3H]leucine, and a given amount of the test compound. […] At the end of this incubation period, the contents of the wells (200 μl) were brought onto 25-mm glass fiber filters (type A/G; Gelman Instrument Co., Ann Arbor, Mich.) mounted on a Millipore 3025 sampling manifold apparatus. The filters were washed twice with cold PBS (phosphate-buffered saline), twice with cold 10% trichloroacetic acid, twice with cold 5% trichloroacetic acid, once with cold ethanol, and once with cold ether. The filters were then allowed to dry for 10 min at 60° C. and assayed for radioactivity in a toluene-based scintillant.

MSV [4] = format: in vivo; conditions: for Number of Mice not Developing a Tumor (percent): intraperitoneal, 5 daily doses, newborn NMRI mice
[5] = system: HIV-1(IIIB) strains containing L100I, K103N, Y181C and Y188H mutations in the RT; assay: HIV-1(IIIB) strains with NNRTI-specific RT mutations in CEM cell cultures; format: cell-based; conditions: data not shown
Experimental: as §1

HIV = assay: Anti-HIV activity across HIV-1 and HIV-2 in CEM and MT-4 cell cultures; format: cell-based; conditions: Human immunodeficiency virus 1, MT4; HIV-1 and HIV-2 in CEM and MT-4 cells; read-out: EC50 values for HIV (range over virus/cell systems)
Experimental: as §1

[6] = Human immunodeficiency virus 1, CCRF-CEM, HIV-1 (IIIB) in CEM, no addition, Table 3, read-out: EC50 as such
[7] = Human immunodeficiency virus 1, CCRF-CEM, HIV-1 (IIIB) in CEM, Ade 100 μM, read-out: EC50 upon addition of Ade (100 μM)
[8] = Human immunodeficiency virus 1, CCRF-CEM, HIV-1 (IIIB) in CEM, Ado 400 μM, read-out: EC50 upon addition of Ado (400 μM)
[9] = Human immunodeficiency virus 1, CCRF-CEM, HIV-1 (IIIB) in CEM, Guo 10 μM, read-out: EC50 upon addition of Guo (10 μM)
[10] = Human immunodeficiency virus 1, CCRF-CEM, HIV-1 (IIIB) in CEM, dCyd 1 mM, read-out: EC50 upon addition of dCyd (1 mM)
[11] = Human immunodeficiency virus 1, CCRF-CEM, HIV-1 (IIIB) in CEM, dThd 10 μM, read-out: EC50 upon addition of dThd (10 μM)
[12] = Human immunodeficiency virus 1, CCRF-CEM, HIV-1(IIIB)-induced cytopathicity in CEM cell cultures, Table 1, read-out: EC50 HIV-1 (CEM)
[13] = Human immunodeficiency virus 1, IIIB, CCRF-CEM, giant cell formation, mean ±SD of 2 to 4 experiments, Table 2, read-out: EC50 HIV-1 (IIIB) (CEM)
[14] = MSV-induced C3H cell transformation, Table 2, read-out: EC50 MSV (C3H)
[15] = 50% cytostatic concentration, CEM cell proliferation, Table 1, read-out: CC50 (CEM)
[16] = inhibition of cell proliferation, Table 2, read-out: CC50 CEM
[17] = 20 mg/kg, premature death not taken into account
[18] = 50 mg/kg, premature death not taken into account

| Structure (SMILES) | EC50 (HIV-1(IIIB); [6]) | EC50 (HIV-1(IIIB); [7]) | EC50 (HIV-1(IIIB); [8]) | EC50 (HIV-1(IIIB); [9]) | EC50 (HIV-1(IIIB); [10]) | EC50 (HIV-1(IIIB); [11]) | EC50 (HIV-1(IIIB); [12]) | EC50 (HIV-1(IIIB); [13]) | EC50 (HIV-2(ROD)) | EC50 (FIV (strain Petaluma)) | EC50 (MSV [1]; [14]) | CC50 [2, 15] | CC50 [2, 16] | CC50 ([2]; read-out: CC50 for CEM cells) | Minimal concentration causing visible cell morphology alteration [3] | Compound concentration at which morphological toxicity was observed, C3H (value between parentheses) (C3H cells) | Inhibition of [3H]dThd, [3H]Urd and [3H]leu incorporation into TCA-insoluble CEM cell material (macromolecular synthesis) (CEM cells) | Number of Long-Term Survivors (%) (>30 days) (MSV [4]; 2 mg/kg) | Number of Mice not Developing a Tumor (percent) (MSV [4]; 2 mg/kg) | Number of Long-Term Survivors (%) (>30 days) (MSV [4]; 8 mg/kg) | other results |
| --- | --- | --- | --- | --- | --- | --- | --- | --- | --- | --- | --- | --- | --- | --- | --- | --- | --- | --- | --- | --- | --- |
| Nc1cc(OCCOCP(=O)(O)O)nc(N)n1 [Compound 1, 2,4-diamino-6-[2-(phosphonomethoxy)ethoxy]pyrimidine] | 0.77 ± 0.25 µg/mL (≈ 2.91 µM) | 0.26 ± 0.16 µg/mL (≈ 0.984 µM) | 0.63 ± 0.29 µg/mL (≈ 2.38 µM) | 0.65 ± 0.21 µg/mL (≈ 2.46 µM) | 0.55 ± 0.35 µg/mL (≈ 2.08 µM) | 0.35 ± 0.07 µg/mL (≈ 1.32 µM) | 0.8 µg/mL (≈ 3.03 µM) | 0.9 ± 0.4 µg/mL (≈ 3.41 µM) | 0.29 µg/mL (≈ 1.1 µM) | 0.25 ± 0.01 µg/mL (≈ 0.946 µM) | 0.16 ± 0.04 µg/mL (≈ 0.606 µM) | 11 µg/mL (≈ 41.6 µM) | 11 ± 2 µg/mL (≈ 41.6 µM) | 11 µg/mL (≈ 41.6 µM) | > 40 µg/mL | 200 μg/ml | Neither compounds 1 nor 2, nor compound 11 were inhibitory | 15% | 5% | 89% | EC50 (MSV [1]; C3H, read-out: EC50 against MSV-induced C3H cell transformation): 0.05 to 0.15 µg/mL (≈ 0.189 to 0.568 µM); Number of Mice not Developing a Tumor (percent) (MSV [4]; 8 mg/kg): 44%; Number of Mice not Developing a Tumor (percent) (MSV [4]; 20 mg/kg): 80%; Number of Long-Term Survivors (%) (>30 days) (MSV [4]; [17]): 100%; Number of Mice not Developing a Tumor (percent) (MSV [4]; 50 mg/kg): 84%; Number of Long-Term Survivors (%) (>30 days) (MSV [4]; [18]): 100^b %; Mice protected from tumor formation (MSV [4]; 50 and 20 mg/kg): At least 80%; Activity against NNRTI-specific mutant virus strains, in words [5]: retained full activity; EC50 (HIV): 0.29 to 0.8 µg/mL (≈ 1.1 to 3.03 µM) |
| Nc1cc(SCCOCP(=O)(O)O)nc(N)n1 [Compound 2, 2,4-diamino-6-{[2-(phosphonomethoxy)ethyl]-sulfanyl}pyrimidine] | 1.9 ± 0.75 µg/mL (≈ 6.78 µM) | 3.3 ± 3.2 µg/mL (≈ 11.8 µM) | 4.4 ± 2.8 µg/mL (≈ 15.7 µM) | 1.9 ± 0.49 µg/mL (≈ 6.78 µM) | 2.1 ± 1.7 µg/mL (≈ 7.49 µM) | 1.4 ± 0.21 µg/mL (≈ 5 µM) | 5.5 µg/mL (≈ 19.6 µM) | 4.6 ± 3.1 µg/mL (≈ 16.4 µM) | 2.9 µg/mL (≈ 10.3 µM) | 0.97 ± 0.4 µg/mL (≈ 3.46 µM) | 1.7 ± 0.9 µg/mL (≈ 6.07 µM) | 64 µg/mL (≈ 228 µM) | 64 ± 9.8 µg/mL (≈ 228 µM) | ~60 µg/mL (≈ 214 µM) | > 40 µg/mL | 200 μg/ml | Neither compounds 1 nor 2, nor compound 11 were inhibitory | 0% | 0% | 20% | Number of Mice not Developing a Tumor (percent) (MSV [4]; 8 mg/kg): 0%; Number of Mice not Developing a Tumor (percent) (MSV [4]; 20 mg/kg): 0%; Number of Long-Term Survivors (%) (>30 days) (MSV [4]; [17]): 20%; Number of Mice not Developing a Tumor (percent) (MSV [4]; 50 mg/kg): 0%; Number of Long-Term Survivors (%) (>30 days) (MSV [4]; [18]): 20%; Prevention of tumor formation, in words (MSV [4]; all doses tested): unable to prevent tumor formation; Long-term survivors (MSV [4]; dose of 8-50 mg/kg): 20%; Delay of MSV-induced tumor formation, in words (MSV [4]; mouse, in vivo): only showed a pronounced delay in tumor formation at a dose of 50 mg/kg; Activity against NNRTI-specific mutant virus strains, in words [5]: retained full activity |

From patent publication US20050038058A1, “Novel compounds and methods for therapy” (Institute of Organic Chemistry and Biochemistry, priority 2001, published 2005)
